The source of these data is PubChem BioAssay (NCI).

Among the test systems are UO-31 renal; RPMI-8226 leukemia; SK-MEL-28 melanoma; A498 renal; SK-MEL-5 melanoma; 786-0 renal; TK-10 renal; SR leukemia; HL-60(TB) leukemia; MALME-3M melanoma.
Test in all cases: NCI tumour cell line growth inhibition, 48 h

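Briefly, cells in 96-well plates were exposed to five compound concentrations for 48 h, and endpoints were estimated by linear interpolation. The concentration for 50% growth inhibition is given as GI50. The concentration for full growth arrest is given as TGI.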

Consider `CC1(C)CCC(c2ccc(Cl)cc2)=C(CN2CCN(c3ccc(C(=O)NS(=O)(=O)c4ccc(N[C@H](CCN5CCOCC5)CSc5ccccc5)c(S(=O)(=O)C(F)(F)F)c4)cc3)CC2)C1`, for which the GI50 in the assay on UO-31 renal was 1.74 µM; with RPMI-8226 leukemia it was 0.342 µM; in the assay on SK-MEL-28 melanoma, 1.74 µM; in the assay with A498 renal it was 0.0191 µM; in the assay on SK-MEL-5 melanoma, 1.57 µM; with 786-0 renal, 1.88 µM. The GI50 with TK-10 renal was 1.28 µM; in the assay with SR leukemia, 2.34 µM; with HL-60(TB) leukemia, 0.568 µM. For the same molecule, the TGI in the assay on UO-31 renal came out at 3.21 µM; with RPMI-8226 leukemia it was 4.33 µM; in the assay with SK-MEL-28 melanoma it was 3.22 µM; in the assay with A498 renal it was 0.115 µM; with SK-MEL-5 melanoma it was 2.93 µM; in the assay with 786-0 renal, 3.4 µM. Moreover, the TGI with TK-10 renal was 2.67 µM; with SR leukemia it was over 25.9 µM; in the assay on HL-60(TB) leukemia, 3.84 µM.

In the case of `CCN(CC)CCCC(C)Nc1ccnc2cc(OC)ccc12` (stereo unspecified), the GI50 in the assay on MALME-3M melanoma was 22.1 µM; in the assay on UO-31 renal, 16.4 µM; in the assay on RPMI-8226 leukemia it was 18.6 µM; in the assay with A498 renal it was 35.3 µM; in the assay with SK-MEL-5 melanoma, 18.3 µM; with 786-0 renal, 17.1 µM. Further, the GI50 is 17.7 µM with TK-10 renal and 24.1 µM with SR leukemia. In addition, the TGI is 50.2 µM in the assay on MALME-3M melanoma; 34.6 µM with UO-31 renal; 42 µM in the assay with RPMI-8226 leukemia; over 100 µM with A498 renal; 32.8 µM in the assay with SK-MEL-5 melanoma; 35.9 µM in the assay on 786-0 renal. Also, the TGI in the assay on TK-10 renal is 40.6 µM; in the assay with SR leukemia it was over 100 µM.

On to `COc1cc(-c2nn(-c3cccc(NC(=O)NCCNC(=O)c4ccccc4)c3)cc2-c2ccncc2)ccc1Cl`, for which the GI50 in the assay with MALME-3M melanoma is 1.97 µM; in the assay with UO-31 renal it was 2.76 µM; in the assay with SK-MEL-28 melanoma, 3.04 µM; with A498 renal, 4.72 µM; with SK-MEL-5 melanoma, 1.55 µM; in the assay with 786-0 renal it was 1.94 µM. The results for the GI50 in the assay on TK-10 renal and with SR leukemia were 6.09 µM and 2.42 µM, respectively. Moreover, the TGI in the assay on MALME-3M melanoma was 6.11 µM; in the assay with UO-31 renal, over 100 µM; in the assay with SK-MEL-28 melanoma it was over 100 µM; with A498 renal, over 100 µM; in the assay with SK-MEL-5 melanoma it was 4.06 µM; in the assay on 786-0 renal, 5.37 µM. The TGI in the assay on TK-10 renal was 63.7 µM; in the assay on SR leukemia, over 100 µM.

As to `Cc1cc(C)c(CNC(=O)c2cc(Cl)c3c(c2C)O[C@@](C)(C2CCC(N(C)C)CC2)O3)c(=O)[nH]1` (stereo partly specified), the GI50 is 45.3 µM with MALME-3M melanoma; 45.6 µM in the assay on UO-31 renal; 38 µM in the assay with RPMI-8226 leukemia; over 100 µM in the assay with SK-MEL-28 melanoma; 27.8 µM with A498 renal; 21.3 µM in the assay on SK-MEL-5 melanoma. Besides, the figures for the GI50 with 786-0 renal, with TK-10 renal and in the assay with HL-60(TB) leukemia were 33.1 µM, over 100 µM and 61.5 µM, respectively. The TGI with MALME-3M melanoma was over 100 µM; with UO-31 renal, over 100 µM; in the assay on RPMI-8226 leukemia, over 100 µM; in the assay on SK-MEL-28 melanoma, over 100 µM; in the assay with A498 renal it was over 100 µM; with SK-MEL-5 melanoma, 63.2 µM. Moreover, the TGI with 786-0 renal, in the assay with TK-10 renal and in the assay on HL-60(TB) leukemia was over 100 µM throughout.

In the case of `CC1SC(c2ccc(OCc3ccccc3)cc2)N(NC(=O)C(O)(c2ccccc2)c2ccccc2)C1=O` (stereo unspecified), the GI50 in the assay on MALME-3M melanoma is 2.15 µM; in the assay on UO-31 renal, 3.74 µM; with RPMI-8226 leukemia it was 2.05 µM; in the assay with SK-MEL-28 melanoma, 4.44 µM; in the assay on A498 renal it was 3.34 µM; in the assay with SK-MEL-5 melanoma, 8.26 µM. Besides, the figures for the GI50 in the assay with 786-0 renal, in the assay on TK-10 renal and with HL-60(TB) leukemia were 1.98 µM, 2.57 µM and 1.85 µM, respectively. In addition, the TGI in the assay on MALME-3M melanoma was 10.5 µM; in the assay with UO-31 renal it was 21.3 µM; in the assay with RPMI-8226 leukemia, 6.13 µM; with SK-MEL-28 melanoma, 16.3 µM; in the assay on A498 renal, 13.7 µM; with SK-MEL-5 melanoma, 20.7 µM. Further, the TGI in the assay on 786-0 renal came out at 4.64 µM; with TK-10 renal, 14.3 µM; in the assay on HL-60(TB) leukemia it was 5.02 µM.

For `O=C1N(c2ccccc2)C2(O)C(=O)c3ccccc3C2(O)N1c1ccccc1` (stereo unspecified), the TGI in the assay with MALME-3M melanoma, in the assay with UO-31 renal, in the assay with RPMI-8226 leukemia, in the assay with SK-MEL-28 melanoma, with A498 renal and in the assay with SK-MEL-5 melanoma was over 100 µM throughout. The TGI with 786-0 renal, in the assay on TK-10 renal and with SR leukemia was over 100 µM each time.

As to `CCOc1ccc(/C=C/C(=O)c2sc(NNC(C)=O)nc2C)cc1`, the TGI in the assay on MALME-3M melanoma, in the assay with UO-31 renal, in the assay with RPMI-8226 leukemia, with SK-MEL-28 melanoma, in the assay with A498 renal and in the assay with SK-MEL-5 melanoma was over 100 µM each time. Besides, the TGI in the assay with 786-0 renal, in the assay on TK-10 renal and with HL-60(TB) leukemia was over 100 µM in each case.

As to `N#CCC1CCN(c2nc(Nc3ccc(N4CCC(O)CC4)cc3)c3c(=O)[nH]ncc3n2)CC1`, the GI50 in the assay with UO-31 renal was 0.259 µM; with RPMI-8226 leukemia, over 100 µM; with SK-MEL-28 melanoma, 1.2 µM; in the assay with A498 renal it was 0.342 µM; with SK-MEL-5 melanoma, over 100 µM; in the assay with 786-0 renal, 0.82 µM. In addition, the GI50 in the assay with TK-10 renal is 0.306 µM; in the assay with SR leukemia, 0.288 µM. The TGI in the assay with UO-31 renal is 4.67 µM; in the assay with RPMI-8226 leukemia, over 100 µM; in the assay with SK-MEL-28 melanoma it was over 100 µM; in the assay with A498 renal, 1.74 µM; in the assay with SK-MEL-5 melanoma, over 100 µM; with 786-0 renal, over 100 µM. Also, the TGI with TK-10 renal and in the assay with SR leukemia was over 100 µM throughout.

For `Nc1ncnc2c1ncn2C1SC(CO)C(O)C1O` (stereo unspecified), the GI50 in the assay with UO-31 renal was 18.8 µM; in the assay on RPMI-8226 leukemia it was 44.1 µM; in the assay with SK-MEL-28 melanoma, 56.5 µM; in the assay on SK-MEL-5 melanoma, 74.4 µM; in the assay with 786-0 renal, 16.5 µM; in the assay on TK-10 renal, 60.9 µM. Besides, the GI50 in the assay on SR leukemia is 12.5 µM; in the assay on HL-60(TB) leukemia, 30.3 µM. The TGI in the assay with UO-31 renal is 41.9 µM; in the assay on RPMI-8226 leukemia, over 100 µM; with SK-MEL-28 melanoma it was over 100 µM; in the assay on SK-MEL-5 melanoma, over 100 µM; with 786-0 renal, 37.3 µM; with TK-10 renal, over 100 µM. In addition, the TGI in the assay on SR leukemia was 45.2 µM; in the assay on HL-60(TB) leukemia, 76.2 µM.
